Source: patent US8658801B2, “Pesticides containing a bicyclic bisamide structure” (Syngenta Crop Protection, LLC, priority 2006, dated 2014)

What was measured:
[1] = tested on: Plutella xylostella (Diamond Back Moth); test: Example B3: Plutella xylostella, larvicide, feeding/residual contact, preventive (artificial diet MTP); format: in vivo; conditions: 120 h, 5 days incubation, L2 larvae
Experimental: Plutella xylostella (Diamond Back Moth)
(§1) (Larvicide, Feeding/Residual Contact Activity, Preventive)
24-well microtiter plate (MTP) with artificial diet is treated with test solutions by pipetting. After drying, the MTP's are infested with larvae (L2)(10-15 per well). After an incubation period of 5 days, samples are checked for larval mortality, antifeedant and growth regulation. In this test, compounds listed in Table P above show good activity. In particular compounds P.1, P.2, P.3, P.4, P.5, P.6, P.7, P.9, P.10, P.11, P.12, P.13, P.15, P.16, P.17, P.18, P.19, P.20, P.21, P.22, P.23, P.25, P.26, P.27, P.28, P.29, P.30, P.31, P.32, P.33, P.34, P.35, P.36, P.37, P.38, P.39, P.40, P.41, P.42, P.43, P.44, P.46, P.47, P.48, P.49, P.50, P.51, P.52, P.53, P.54, P.55, P.56, P.57, P.58, P.59, P.60, P.61, P.63, P.64, P.67, P.68, P.69 P.70, P.72, P.74, P.77, P78 and P.79 show an activity of over 80% at a concentration of 400 ppm.

[2] = tested on: Heliothis virescens (Tobacco Budworm); test: Example B2: activity against Heliothis virescens, ovo-larvicide, feeding/contact, curative; format: in vivo; conditions: 96 h, 4 days incubation, eggs 0-24 h old
Experimental: Activity Against Heliothis virescens (Tobacco Budworm)
(Ovo-Larvicide, Feeding/Contact Activity, Curative)
Eggs (0-24 h old) are placed in 24-well microtiter plate on artificial diet and treated with test solutions by pipetting. After an incubation period of 4 days, samples are checked for egg mortality, larval mortality, and growth regulation.

[3] = tested on: Cydia pomonella (Codling Moth); test: Example B8: activity against Cydia pomonella (paraffin-coated diet cubes); format: in vivo; conditions: 336 h, 14 days incubation at 26° C.
Experimental: Activity Against Cydia pomonella (Codling Moth)
Standard Cydia diet cubes (1.5 cm width) are pierced with a tooth-pick and are immersed in liquid paraffin (ca. 80° C.). After the paraffin coat has hardened, an aqueous emulsion containing 400 ppm of active ingredient is applied using a De Vilbis sprayer (25 ml, 1 bar). After the spray coating has dried, the cubes are put into plastic containers which are then populated with two freshly hatched Cydia pomonella (1st instar). The containers are then closed with a plastic cap. After 14 days incubation at 26° C. and 40-60% relative humidity, the survival rate of the caterpillars as well as their growth regulation is determined. In this test, compounds listed in Table P above show good activity. In particular compounds P.10, P.11, P.12, P.18, P.19, P.20, P.29, P.30, P.31, P.32, P.33, P.34, P.35, P.37, P.38, P.39, P.42, and P.43 show an activity of over 80% at a concentration of 400 ppm.

[4] = tested on: Frankliniella occidentalis (Western Flower Thrips); test: Example B9: activity against Frankliniella occidentalis (bean leaf discs or bean plants); format: in vivo; conditions: foliar, 6 days (leaf discs) or 14 days (plants) after infestation
Experimental: Activity Against Frankliniella occidentalis (Western Flower Thrips)
Bean leaf discs on agar in petri dishes or bean plants in a spray chamber are treated with diluted test solutions. After drying leaf discs are cut and placed in plastic cups on the surface of an agar layer and infested with mixed population. 6 days (leaf discs) or 14 days (plants) after the infestation, samples are checked for reduction of treated population and compared to the non treated population.

[5] = tested on: Spodoptera littoralis (Egyptian Cotton Leafworm); test: Example B1: activity against Spodoptera littoralis, larvicide, feeding/residual contact, preventive (cotton leaf discs); format: in vivo; conditions: foliar, 72 h, 3 days after treatment, L1 larvae
From the text: Activity Against Spodoptera littoralis (Egyptian Cotton Leafworm)
as §1
The samples are checked for mortality, repellent effect, feeding behaviour, and growth regulation 3 days after treatment. In this test, compounds listed in Table P above show good activity. In particular compounds P.1, P.2, P.3, P.4, P.5, P.6, P.7, P.9, P.10, P.11, P.12, P.13, P.15, P.16, P.17, P.18, P.19, P.20, P.21, P.22, P.23, P.24, P.25, P.26, P.27, P.28, P.29, P.30, P.31, P.32, P.33, P.34, P.35, P.36, P.37, P.38, P.39, P.40, P.41, P.42, P.43, P.44, P.45, P.46, P.47, P.48, P.49, P.50, P.51, P.52, P.53, P.54, P.55, P.56, P.57, P.58, P.59, P.60, P.61, P.63, P.64, P.67, P.68 and P.70 show an activity of over 80% at a concentration of 400 ppm.

[6] = tested on: Myzus persicae (Green Peach Aphid); test: Example B5: activity against Myzus persicae, mixed population, feeding/residual contact, preventive (sunflower leaf discs); conditions: foliar, 144 h, read-out: activity
[7] = tested on: Diabrotica balteata (Corn Root Worm); test: Example B4: Diabrotica balteata, larvicide, feeding/residual contact, preventive; format: in vivo; conditions: 120 h, 5 days incubation, L2 larvae
Experimental: Diabrotica balteata (Corn Root Worm)
as §1
After drying, the MTP's are infested with larvae (L2)(6-10 per well). After an incubation period of 5 days, samples are checked for larval mortality, antifeedant and growth regulation. In this test, compounds listed in Table P above show good activity. In particular compounds P.1, P.2, P.5, P.6, P.10, P.11, P.12, P.13, P.15, P.16, P.17, P.18, P.19, P.24, P.25, P.27, P.28, P.29, P.30, P.31, P.33, P.34, P.35, P.37, P.38, P.39, P.42, P.43, P.44, P.45, P.46, P.47, P.48, P.49, P.50, P.52, P.53, P.65, P.67, P.68, P.69, P.70, P.71, P.72, P.75, P.78, and P.79 show an activity of over 80% at a concentration of 400 ppm.

[8] = tested on: Myzus persicae (Green Peach Aphid); test: Example B6: activity against Myzus persicae, mixed population, systemic/feeding, curative (pea seedling roots); conditions: 144 h, read-out: activity
[9] = tested on: Aphis craccivora (Pea Aphid); test: Example B11: activity against Aphis craccivora, mixed population, systemic/feeding; format: in vivo; conditions: 144 h, 6 days, roots in test solution (systemic)
From the text: Activity Against Aphis craccivora (Pea Aphid)
(Mixed Population, Systemic/Feeding)
6 days later, samples are checked for mortality.

[10] = tested on: Thrips tabaci (Onion Thrips); test: Example B7: activity against Thrips tabaci, mixed population, feeding/residual contact, preventive; conditions: 144 h, read-out: activity

Measured: pest or weed control at 400 ppm

O=C(NCC1CC1)c1c(NC(=O)c2cc(C(F)(F)F)nn2-c2ncccc2Cl)c(Cl)cc2cn[nH]c12 [P.11]
not listed: [8] | [9] | [10]
> 80%: all other assays above

CSCC(C)(C)NC(=O)c1c(NC(=O)c2cc(C(F)(F)F)nn2-c2ncccc2Cl)c(Cl)cc2cn[nH]c12 [P.13]
not listed: [3]
> 80%: all other assays above

Cc1ccc2c(C(=O)NC(C)C)c(NC(=O)c3cc(C(F)(F)F)nn3-c3ncccc3Cl)c(C)cc2n1 [P.20]
> 80%: [1] | [2] | [3] | [5]

CNC(=O)c1c(NC(=O)c2cc(C(F)(F)F)nn2-c2ncccc2Cl)c(Cl)cc2cn[nH]c12 [P.29]
not listed: [4] | [9]
> 80%: all other assays above

O=C(NC1CC12CC2)c1c(NC(=O)c2cc(C(F)(F)F)nn2-c2ncccc2Cl)c(Cl)cc2cn[nH]c12 (stereo not drawn) [P.31]
> 80%: [1] | [2] | [3] | [5] | [6] | [7]

CC1(NC(=O)c2c(NC(=O)c3cc(C(F)(F)F)nn3-c3ncccc3Cl)c(Cl)cc3cn[nH]c23)CSC1 [P.32]
not listed: [4] | [7] | [9]
> 80%: all other assays above

CCNC(=O)c1c(NC(=O)c2cc(Cl)nn2-c2ncccc2Cl)c(Br)cc2cn[nH]c12 [P.37]
not listed: [4] | [9]
> 80%: all other assays above

O=C(NC1(C2CC2)CC1)c1c(NC(=O)c2cc(C(F)F)nn2-c2ncccc2Cl)c(Cl)cc2cn[nH]c12 [P.38]
not listed: [8] | [9] | [10]
> 80%: all other assays above

O=C(NC1(C2CC2)CC1)c1c(NC(=O)c2cc(Cl)nn2-c2ncccc2Cl)c(Cl)cc2cn[nH]c12 [P.45, 5-chloro-6-{[5-chloro-2-(3-chloro-pyridin-2-yl)-2H-pyrazole-3-carbonyl]-amino}-1H-indazole-7-carboxylic acid bicyclopropyl-1-ylamide]
not listed: [1] | [2] | [3]
> 80%: all other assays above

Cc1cc2cn[nH]c2c(C(=O)NC(C)C)c1NC(=O)c1cc(OCC(F)(F)F)nn1-c1ncccc1Cl [P.52, 6-{[2-(3-chloro-pyridin-2-yl)-5-(2,2,2-trifluoro-ethoxy)-2H-pyrazole-3-carbonyl]-amino}-5-methyl-1H-indazole-7-carboxylic acid isopropylamide]
not listed: [3]
> 80%: all other assays above
